Source: paper PMC12787479, “Steam Explosion as a Green Pretreatment Strategy to Enhance Total Phenolics Release and Biological Activities in Potentilla discolor Bunge Stems” (Molecules, 2025)
Marks after values point to notes of the source that are not given here.

Columns and labels:
Format in all cases: biochemical
[1] = DPPH free radical scavenging assay; details: extract obtained under optimized extraction conditions; 25 °C, 30 min, 517 nm
Method: DPPH ethanol solution (0.12 μmol/mL, 0.1 mL) was mixed with 0.1 mL different concentrations of PDB stem solutions (10, 25, 50, 75, and 100 μg/mL). Incubation was carried out in a dark environment at 25 °C for 30 min. […] The absorbance values were measured at 517 nm using an enzyme meter. All experiments were performed in triplicate, and results are expressed as mean ± standard deviation (SD). The calculation formula was as follows.(3) Radical scavenging rate %=[…]×100% where Ac was the absorbance of blank group; As was the absorbance of PDB stem group, respectively. […] All data were represented as mean ± standard deviation (SD) and the significant statistical differences was determined by a one-way ANOVA test using SPSS version 22.0. Different lowercase letters were regarded as significant differences (p < 0.05).

[2] = ABTS free radical scavenging assay; details: extract obtained under optimized extraction conditions; 30 min dark, 734 nm
Method: The solution was then diluted fivefold before use. […] For standard curve construction, ascorbic acid solutions at concentrations of 2, 4, 8, 15, 25, and 50 μg/mL were treated in the same manner. All experiments were performed in triplicate, and results were expressed as mean ± SD. The absorbance values were measured at 734 nm, and the scavenging rate was calculated using Equation (1). […] All data were represented as mean ± standard deviation (SD) and the significant statistical differences was determined by a one-way ANOVA test using SPSS version 22.0. Different lowercase letters were regarded as significant differences (p < 0.05).

[3] = FRAP reduction assay (ferric reducing antioxidant power); details: absorbance at 700 nm at a concentration of 600 μg/mL
Method: Extraction solutions of PDB stems at 0.4, 0.6, 0.8, 1.0, or 1.2 mg/mL (0.1 mL each) were mixed with an equal volume (0.1 mL) of 30 μmol/mL K3[Fe(CN)6] solution (1:1, v/v) and incubated at 50 °C for 20 min. Then, 0.2 mL of 10% (w/v) trichloroacetic acid (TCA) solution was added, and the resulting mixture was defined as solution A. Finally, 0.1 mL of solution A was mixed with 0.1 mL of 3.4 μmol/mL FeCl3 solution, and the absorbance of the mixture was measured at 700 nm. […] All experiments were performed in triplicate, and results are expressed as mean ± SD.

DPPH·IC50 [1]: 3.47 ± 0.02 ^a μg/mL
ABTS·IC50 [2]: 20.71 ± 0.42 ^a μg/mL
Compound: O=C1O[C@H]([C@@H](O)CO)C(O)=C1O [Ascorbic acid]
FRAP (A700, 600 μg/mL) [3]: 3.17 ± 0.05 ^a
FRAP (A700, 600 μg/mL) ([3]; listed as ascorbic acid): 3.17 ± 0.05
